Test results taken from PMC7129073 (Clinical Microbiology and Infection, 2015).
Converted amounts (≈) assume the structure as drawn. Read-outs that look alike come from different tables or passages of the source.

Columns and labels:
[1] = tested on: viridans group streptococci (VgS) and Streptococcus bovis; assay: Broth microdilution and disk diffusion; type: cell-based; settings: nine species
Streptococcus pneumoniae [2] = assay: BSAC agar dilution, lower respiratory isolates UK and Ireland; type: cell-based
Salmonella spp. = assay: Agar dilution susceptibility, gastroenteritis isolates Cuba; type: cell-based; settings: 34 strains, 2002
enterococci [3] = assay: Disk diffusion and E-test, faecal isolates of cancer patients; type: cell-based, Enterococcus; settings: 38 strains; gentamycin: high level
N.gonorrhoeae = assay: microbe, parasite or virus in culture; type: cell-based; settings: Neisseria gonorrhoeae
S. pneumoniae (SPN) = assay: SENTRY Brazil, NCCLS broth microdilution; type: cell-based, Streptococcus pneumoniae
Acinetobacter = assay: Disk diffusion; type: cell-based; settings: 37 isolates selected as resistant to beta-lactams
H. influenzae (HI) = assay: SENTRY Brazil, NCCLS broth microdilution; type: cell-based, Haemophilus influenzae
enterococci [4] = assay: Disk diffusion, urine isolates of BPH patients; settings: strains isolated post-operatively
[5] = tested on: Salmonella serotype Typhimurium; assay: Disk diffusion, food isolates Spain; type: cell-based; settings: n = 53
S. pyogenes = assay: Broth microdilution; type: cell-based, Streptococcus pyogenes; settings: 212 isolates
nontyphoidal Salmonella = assay: Agar dilution, isolates from chickens 1998–2004; type: cell-based, Salmonella spp.
K. pneumoniae = assay: MIC; type: cell-based, Klebsiella pneumoniae
Klebsiella = assay: SMART 2003 Europe, microdilution; type: cell-based, Klebsiella spp.; settings: 341 isolates
[6] = tested on: Salmonella, other 49 serotypes; assay: Disk diffusion, food isolates Spain; type: cell-based; settings: n = 115
Staphylococcus aureus = assay: Susceptibility testing; type: cell-based; settings: conjunctival isolates 2000–2004
E. coli = assay: SMART 2003 Europe, microdilution; type: cell-based, Escherichia coli; settings: 1106 isolates
[7] = tested on: inducible Enterobacteriaceae; assay: SMART 2003, intraabdominal isolates; type: cell-based
Streptococcus pneumoniae [8] = assay: Susceptibility testing; type: cell-based; settings: 99 isolates tested
Enterobacteriaceae = assay: SMART 2003 Europe, microdilution; type: cell-based; settings: 1948 isolates
[9] = tested on: Salmonella serotype Enteritidis; assay: Disk diffusion, food isolates Spain; type: cell-based; settings: n = 96
Escherichia coli (ECO) = assay: Broth microdilution; type: cell-based
[10] = tested on: glycopeptide intermediate Staphylococcus species (GISS); assay: VITEK II, screening plate and E test, blood isolates; type: cell-based, coagulase-negative Staphylococci; settings: 73 GISS strains
Nocardia spp. = assay: E-test on Mueller Hinton agar, 81 clinical isolates; type: cell-based
Haemophilus influenzae = assay: Susceptibility testing; type: cell-based; settings: conjunctival isolates 2000–2004
S. aureus ATCC 25923 = assay: Cefoxitin Neo-Sensitabs tablet diffusion, control strain; type: cell-based; settings: Staphylococcus aureus, ATCC25923, read-out: zone diameter
S. aureus ATCC 29213 = assay: as above; type: cell-based; settings: Staphylococcus aureus, ATCC29213, read-out: zone diameter
K. oxytoca isolate = assay: MIC of qnr-positive SHV-12 producer; type: cell-based; settings: Klebsiella oxytoca
Salmonella enterica = assay: VITEK, NCCLS microdilution and disc diffusion of quinolones; type: cell-based
[11] = tested on: Pseudomonas putida clinical isolates; assay: Agar dilution MIC; type: cell-based
[12] = tested on: Streptococcus agalactiae strains P0162 and P0425; assay: Microdilution; type: cell-based
Shigella spp. = assay: Disk diffusion, stool isolates Tehran; type: cell-based; settings: 96 isolates
Proteus mirabilis (PMI) = assay: Broth microdilution; type: cell-based
[13] = tested on: Enterobacter cloacae (ECL); assay: Broth microdilution; type: cell-based
[14] = tested on: Klebsiella pneumoniae (KPN)
Escherichia coli O157:H7 = assay: Kirby-Bauer susceptibility; type: cell-based; settings: 30 strains, 1990–2003

CN(C)[C@@H]1C(O)=C(C(N)=O)C(=O)[C@@]2(O)C(O)=C3C(=O)c4c(O)cccc4[C@@](C)(O)[C@H]3C[C@@H]12 [tetracycline]
% S, range between species [1]: 35.0 – 93.9%
resistance (PEN-NS >0.06, TET-R >1, ERY-R >0.5, CIP-R >2 mg/L) (Streptococcus pneumoniae [2]; Ireland 1999–2000, N 66): 24.2%
resistance (same cut-offs) (Streptococcus pneumoniae [2]; Ireland 2000–2001, N 59): 25.4%
resistance (same cut-offs) (Streptococcus pneumoniae [2]; Ireland 2001–2002, N 68): 16.2%
resistance (same cut-offs) (Streptococcus pneumoniae [2]; Ireland 2002–2003, N 89): 10.1%
resistance (same cut-offs) (Streptococcus pneumoniae [2]; Ireland 2003–2004, N 76): 7.9%
resistance (same cut-offs) (Streptococcus pneumoniae [2]; UK 1999–2000, N 595): 7.2%
resistance (same cut-offs) (Streptococcus pneumoniae [2]; UK 2000–2001, N 608): 6.3%
resistance (same cut-offs) (Streptococcus pneumoniae [2]; UK 2001–2002, N 631): 4.8%
resistance (same cut-offs) (Streptococcus pneumoniae [2]; UK 2002–2003, N 683): 5.7%
resistance (same cut-offs) (Streptococcus pneumoniae [2]; UK 2003–2004, N 709): 6.2%
resistance (Salmonella spp.): 53%
resistant strains (enterococci [3]): 55%
MIC (N.gonorrhoeae; strain 76mu6): 8 µg/mL (≈ 18 µM)
MIC (N.gonorrhoeae; strain 76mu10): 8 µg/mL (≈ 18 µM)
MIC (N.gonorrhoeae; strain 92mu6): 2 µg/mL (≈ 4.5 µM)
MIC (N.gonorrhoeae; strain 92mu13): 2 µg/mL (≈ 4.5 µM)
% S (S. pneumoniae (SPN); 1998): 72%
% S (S. pneumoniae (SPN); 1999): 75%
% S (S. pneumoniae (SPN); 2000): 82%
% S (S. pneumoniae (SPN); 2001): 78%
% S (S. pneumoniae (SPN); 2002): 86%
% S (S. pneumoniae (SPN); 2003): 85%
resistant isolates (Acinetobacter): 100.0%
% S (H. influenzae (HI); 1998): 96%
% S (H. influenzae (HI); 1999): 84%
% S (H. influenzae (HI); 2000): 95%
% S (H. influenzae (HI); 2001): 95%
% S (H. influenzae (HI); 2002): 98%
% S (H. influenzae (HI); 2003): 96%
resistance (enterococci [4]): 77.8%
resistance rate (NCCLS M100-S13) [5]: 72%
nonsusceptible (S. pyogenes): 25.9%
resistance (nontyphoidal Salmonella; Belgian collection (caecal samples; Belgium, France, Netherlands)): 33%

NC[C@H]1O[C@H](O[C@H]2[C@H](O)[C@@H](O[C@H]3O[C@H](CO)[C@@H](O)[C@H](N)[C@H]3O)[C@H](N)C[C@@H]2N)[C@H](N)C[C@@H]1O [tobramycin]
susceptibility category (K. pneumoniae; BSAC): resistant
per cent susceptible (Klebsiella): 91%
resistance rate (NCCLS M100-S13) [6]: 0%
resistant isolates (Staphylococcus aureus): 14.6%
per cent susceptible (E. coli): 92%
% susceptible ([7]; A/P (N = 200)): 77%
% susceptible ([7]; EU (N = 354)): 93%
% susceptible ([7]; LA (N=113)): 79%
% susceptible ([7]; NA (N = 163)): 93%
resistant isolates (Streptococcus pneumoniae [8]): 49.5%
resistant isolates (Acinetobacter): 10.8%
per cent susceptible (Enterobacteriaceae): 93%
resistance rate (NCCLS M100-S13) [9]: 1%
resistance rate (NCCLS M100-S13) [5]: 4%
susceptible (Escherichia coli (ECO); NAL-resistant isolates, 2001): 71.4%
susceptible (Escherichia coli (ECO); NAL-susceptible isolates, 2001): 95.0%
resistance rate [10]: 91,8%
MIC50 (Nocardia spp.; Nocardia): 4 µg/mL (≈ 8.56 µM)
MIC90 (Nocardia spp.; Nocardia): 12 µg/mL (≈ 25.7 µM)
MIC range (Nocardia spp.; read after 48 and 72 h): <0.016 to 24 µg/mL
resistant isolates (Haemophilus influenzae): 2.6%

CO[C@@]1(NC(=O)Cc2cccs2)C(=O)N2C(C(=O)O)=C(COC(N)=O)CS[C@@H]21 [cefoxitin]
MIC (K. pneumoniae; Klebsiella pneumoniae): > 64 µg/mL
per cent susceptible (Klebsiella): 92%
per cent susceptible (E. coli): 94%
% susceptible ([7]; A/P (N = 200)): 27%
% susceptible ([7]; EU (N = 354)): 29%
% susceptible ([7]; LA (N=113)): 30%
% susceptible ([7]; NA (N = 163)): 23%
zone of inhibition at 10 µg/disc (S. aureus ATCC 25923): 22 to 23 mm
zone of inhibition at 30 µg/disc (S. aureus ATCC 25923): 27 to 29 mm
zone of inhibition at 60 µg/disc (S. aureus ATCC 25923): 32 to 33 mm
per cent susceptible (Enterobacteriaceae): 82%
zone of inhibition at 10 µg/disc (S. aureus ATCC 29213): 21 to 23 mm
zone of inhibition at 30 µg/disc (S. aureus ATCC 29213): 27 to 29 mm
zone of inhibition at 60 µg/disc (S. aureus ATCC 29213): 29 to 33 mm

CCn1cc(C(=O)O)c(=O)c2cc(F)c(N3CCNCC3)cc21 [norfloxacin]
MIC (K. oxytoca isolate): < 0.1 µg/mL
MIC (Salmonella enterica; read-out: NCCLS MIC, 37 NAL-R strains): 0.54 µg/mL (≈ 1.69 µM)
MIC (Salmonella enterica; read-out: NCCLS MIC, NAL-S strains): ≤ 0.06 µg/mL
MIC (Salmonella enterica; read-out: VITEK MIC, 37 strains): 2 µg/mL (≈ 6.26 µM)
MIC (Salmonella enterica; read-out: VITEK MIC, five strains): < 0.5 µg/mL
MIC [11]: > 128 µg/mL
MIC ([12]; strain P0162 (ParC Ser79Phe, GyrA Glu85Ala)): > 256 µg/mL
MIC ([12]; strain P0425 (ParC Ser79Phe, GyrA Glu85Lys)): > 256 µg/mL
sensitive (Shigella spp.): 100%
resistant isolates (Acinetobacter): 100.0%

CCn1cc(C(=O)O)c(=O)c2ccc(C)nc21 [nalidixic acid]
MIC (K. oxytoca isolate): 16 µg/mL
resistance (Proteus mirabilis (PMI); 1984): 2.6%
resistance (Proteus mirabilis (PMI); 2001): 15.9%
resistance [13]; 1984: 2.0%
resistance [13]; 2001: 17.5%
resistance [14]; 1984: 12.2%
resistance [14]; 2001: 21.6%
resistance rate (NCCLS M100-S13) [6]: 14%
sensitive (Shigella spp.): 96%
resistant strains (Escherichia coli O157:H7): 10%
resistance (Escherichia coli (ECO); 1984): 1.6%
resistance (Escherichia coli (ECO); 2001): 19.2%
resistance (nontyphoidal Salmonella; Germany (carcass meat)): 9%
